Experimental data published in ChEMBL document CHEMBL1126045, “Alanine series of ovine corticotropin releasing factor (oCRF): a structure-activity relationship study” (J Med Chem, 1992).

What was measured:
Pituitary gland cell [1] = test: In vitro ability of the compound (peptide) to stimulate ACTH release by rat anterior pituitary cells in relative to Ovine corticotropin releasing factor (oCRF) in experiment 2; type: cell-based; parameters: unit not given here
Pituitary gland cell [2] = test: In vitro ability of the compound (peptide) to stimulate ACTH release by rat anterior pituitary cells in relative to Ovine corticotropin releasing factor (oCRF) in experiment 1; type: cell-based; parameters: unit not given here

Compound | Relative potency (Pituitary gland cell [1]) | Relative potency (Pituitary gland cell [2])
CC[C@H](C)[C@H](NC(=O)[C@H](CC(=O)O)NC(=O)[C@H](CC(C)C)NC(=O)[C@H](CC(C)C)NC(=O)[C@H](CCCCN)NC(=O)[C@H](CCCN=C(N)N)NC(=O)[C@H](CC(N)=O)NC(=O)[C@H](CO)NC(=O)[C@H](Cc1c[nH]cn1)NC(=O)[C@H](C)NC(=O)[C@H](CCC(N)=O)NC(=O)[C@H](CCC(N)=O)NC(=O)[C@H](C)NC(=O)[C@H](CC(C)C)NC(=O)[C@H](CCC(N)=O)NC(=O)[C@H](CC(=O)O)NC(=O)[C@H](C)NC(=O)[C@H](CCCCN)NC(=O)[C@@H](NC(=O)[C@H](CCSC)NC(=O)[C@H](CCC(=O)O)NC(=O)[C@H](CC(C)C)NC(=O)[C@@H](NC(=O)[C@H](CCC(=O)O)NC(=O)[C@H](CCCN=C(N)N)NC(=O)[C@H](CC(C)C)NC(=O)[C@H](CC(C)C)NC(=O)[C@H](Cc1c[nH]cn1)NC(=O)[C@H](Cc1ccccc1)NC(=O)[C@@H](NC(=O)[C@H](CC(C)C)NC(=O)[C@H](CC(=O)O)NC(=O)[C@H](C)NC(=O)[C@H](CO)NC(=O)[C@@H](NC(=O)[C@@H]1CCCN1C(=O)[C@@H]1CCCN1C(=O)[C@H](CCC(=O)O)NC(=O)[C@H](CCC(N)=O)NC(=O)[C@@H](N)CO)[C@@H](C)CC)[C@@H](C)O)C(C)C)[C@@H](C)O)C(=O)N[C@@H](C)C(N)=O | 0.005 | 0.03
H-SQEPPISLDLTFHALREVLEMTKADQLAQQAHSNRKLLDIA-NH2 | 0.001 | 0.001
CC[C@H](C)[C@H](NC(=O)[C@H](CC(=O)O)NC(=O)[C@H](CC(C)C)NC(=O)[C@H](CC(C)C)NC(=O)[C@H](CCCCN)NC(=O)[C@H](CCCN=C(N)N)NC(=O)[C@H](CC(N)=O)NC(=O)[C@H](CO)NC(=O)[C@H](Cc1c[nH]cn1)NC(=O)[C@H](C)NC(=O)[C@H](CCC(N)=O)NC(=O)[C@H](CCC(N)=O)NC(=O)[C@H](C)NC(=O)[C@H](CC(C)C)NC(=O)[C@H](CCC(N)=O)NC(=O)[C@H](CC(=O)O)NC(=O)[C@H](C)NC(=O)[C@H](CCCCN)NC(=O)[C@@H](NC(=O)[C@H](CCSC)NC(=O)[C@H](CCC(=O)O)NC(=O)[C@H](CC(C)C)NC(=O)[C@@H](NC(=O)[C@H](CCC(=O)O)NC(=O)[C@H](CCCN=C(N)N)NC(=O)[C@H](CC(C)C)NC(=O)[C@H](CC(C)C)NC(=O)[C@H](Cc1c[nH]cn1)NC(=O)[C@H](Cc1ccccc1)NC(=O)[C@@H](NC(=O)[C@H](CC(C)C)NC(=O)[C@H](CC(=O)O)NC(=O)[C@H](CC(C)C)NC(=O)[C@H](C)NC(=O)[C@@H](NC(=O)[C@@H]1CCCN1C(=O)[C@@H]1CCCN1C(=O)[C@H](CCC(=O)O)NC(=O)[C@H](CCC(N)=O)NC(=O)[C@@H](N)CO)[C@@H](C)CC)[C@@H](C)O)C(C)C)[C@@H](C)O)C(=O)N[C@@H](C)C(N)=O | 0.21 | 0.16
H-SQEPPISLDLTFHLLREVLEMTKADQAAQQAHSNRKLLDIA-NH2 | 0.38 | 0.6
H-SQEPPISLDLTFHLLREVLAMTKADQLAQQAHSNRKLLDIA-NH2 | 1.6 | 2.8
